Test system: DOHH2 and TMD8 DLBCL cells
Assay: Gene expression profiling (HumanHT-12 v4 BeadChip, limma), ST7612AA1 300 nM 8 hrs vs DMSO
Format: cell-based, human
[1] = 300 nM, 8 hours, fold change > 1.5, adjusted p-value < 0.005

## CC(=O)SCCCCC[C@H](NC(=O)[C@H]1CCC(=O)N1)C(=O)Nc1ccccc1 [ST7612AA1]
300 nM 8 hrs vs DMSO
  log ratio TCEA2 (probe ILMN_1665526): 8.50E-01
  log ratio TCEAL3 (probe ILMN_1734190): 7.88E-01
  log ratio TCERG1 (ILMN_1706839): -8.49E-01
  log ratio TCFL5 (ILMN_1814247): 6.07E-01
  log ratio TCTN1 (probe ILMN_1685124): 7.81E-01
  log ratio TESK2 (probe ILMN_1654370): 8.37E-01
  log ratio TFB2M (ILMN_2067709): -7.83E-01
  log ratio THOC6 (ILMN_1679880): -5.93E-01
  log ratio THUMPD2 (ILMN_1787511): -6.05E-01
  log ratio TIMM10 (ILMN_1765332): -1.04E+00
  log ratio TLK1 (ILMN_1811029): -9.26E-01
  log ratio TMBIM4 (ILMN_1664750): -9.76E-01
  log ratio TMED1 (ILMN_1693045): -9.13E-01
  log ratio TMEM14A (probe ILMN_1785191): 7.29E-01
  log ratio TMEM49 (probe ILMN_1692754): 8.49E-01
  log ratio TMEM154 (probe ILMN_2088124): 6.89E-01
  log ratio TMEM179B (ILMN_3241979): 5.96E-01
  log ratio TMEM184B (ILMN_1747460): 6.31E-01
  log ratio TMEM199 (ILMN_1748481): -6.12E-01
  log ratio TMOD2 (probe ILMN_3250273): 7.57E-01
  log ratio TMPO (ILMN_1768816): -8.22E-01
  log ratio TNFRSF17 (ILMN_1768016): -1.76E+00
  log ratio TOB1 (ILMN_1672004): 6.63E-01
  log ratio TPRG1L (probe ILMN_1727479): 7.86E-01
  log ratio TPST1 (probe ILMN_1651950): 7.51E-01
  log ratio TPST2 (probe ILMN_1695432): 7.18E-01
  log ratio TRAFD1 (probe ILMN_1758250): 8.52E-01
  log ratio TRIM4 (ILMN_2323385): 6.43E-01
  log ratio TRIM6 (ILMN_1656910): 5.98E-01
  log ratio TRIM8 (ILMN_1746704): -8.66E-01
  log ratio TRIM21 (ILMN_1678054): -8.09E-01
  log ratio TRIM22 (ILMN_1779252): -8.73E-01
  log ratio TRIP6 (ILMN_1713990): -1.16E+00
  log ratio TRMT1 (ILMN_1812940): -8.45E-01
  log ratio TRMT11 (ILMN_1805481): -8.20E-01
  log ratio TSEN2 (ILMN_1746393): -8.42E-01
  log ratio TSPAN4 (ILMN_2340027): 5.99E-01
  log ratio TTC27 (ILMN_1757730): -1.28E+00
  log ratio TTLL12 (ILMN_1663113): -6.01E-01
  log ratio TUBG2 (ILMN_1701052): 6.65E-01
  log ratio TXNDC14 (ILMN_1799367): -8.38E-01
  log ratio TYMS (ILMN_1806040): -1.10E+00
  log ratio TYSND1 (ILMN_1775677): -1.15E+00
  log ratio TYW3 (ILMN_1726842): -9.88E-01
  log ratio U2AF2 (ILMN_1768930): -1.25E+00
  log ratio UBE2A (probe ILMN_2307455): 7.18E-01
  log ratio UBE2C (ILMN_2265654): -7.99E-01
  log ratio UBE2D4 (ILMN_1707084): -8.99E-01
  log ratio UBE2H (ILMN_1757644): 6.49E-01
  log ratio UBE2J1 (ILMN_1713759): -1.05E+00
  log ratio UBTD1 (probe ILMN_1794914): 8.56E-01
  log ratio UBXN8 (ILMN_1731891): -8.44E-01
  log ratio UCK2 (ILMN_1768662): -9.43E-01
  log ratio UCP2 (probe ILMN_1685625): 7.30E-01
  log ratio UNC45A (ILMN_1726434): 6.72E-01
  log ratio UNC84A (probe ILMN_1772316): 7.21E-01
  log ratio UNG (ILMN_1683120): -1.39E+00
  log ratio UPLP (probe ILMN_3236765): 7.46E-01
  log ratio UPP1 (ILMN_1798256): 6.07E-01
  log ratio URB2 (ILMN_3249406): -5.93E-01
  log ratio USP13 (ILMN_3251526): -5.97E-01
  log ratio VASH2 (probe ILMN_1692698): 7.31E-01
  log ratio VPS8 (probe ILMN_1678268): 7.47E-01
  log ratio VRK2 (ILMN_1750088): -9.87E-01
  log ratio VRK3 (ILMN_1771697): 6.75E-01
  log ratio WARS2 (ILMN_2323979): -5.97E-01
  log ratio WDR12 (ILMN_1770692): -7.92E-01
  log ratio WDR12 (ILMN_2045729): -8.64E-01
  log ratio WDR19 (probe ILMN_1655117): 7.77E-01
  log ratio WIBG (ILMN_1751431): -1.01E+00
  log ratio WIPI2 (ILMN_2321292): 6.22E-01
  log ratio WNK1 (ILMN_1876924): 6.14E-01
  log ratio YARS2 (ILMN_1782635): -8.22E-01
  log ratio YDJC (ILMN_1812580): -8.57E-01
  log ratio YPEL3 (ILMN_1791147): 6.17E-01
  log ratio YPEL5 (probe ILMN_1711069): 6.99E-01
  log ratio YRDC (ILMN_2061732): -8.81E-01
  log ratio ZBTB42 (ILMN_3239445): 6.62E-01
  log ratio ZDHHC8 (probe ILMN_1789492): 8.85E-01
  log ratio ZFP161 (ILMN_1772522): -5.98E-01
  log ratio ZFX (ILMN_1687484): -6.10E-01
  log ratio ZMAT3 (ILMN_1654262): 5.95E-01
  log ratio ZMYND11 (ILMN_1754234): -1.27E+00
  log ratio ZNF385A (ILMN_1786722): 6.67E-01
  log ratio ZNF532 (ILMN_1731358): -8.77E-01
  log ratio ZNF689 (ILMN_1759008): -8.10E-01
  log ratio ZNF692 (ILMN_1800750): -5.98E-01
  log ratio ZNF775 (probe ILMN_1691702): 7.39E-01
  log ratio ZNF791 (ILMN_1758105): 6.65E-01
  log ratio ZNHIT1 (ILMN_1741491): 6.13E-01
  log ratio ZNRD1 (ILMN_1692486): -8.14E-01
  log ratio ZNRD1 (ILMN_2398587): -8.04E-01
  log ratio ZSCAN16 (ILMN_1809566): 6.84E-01
  log ratio ZZZ3 (ILMN_1653618): -7.87E-01
  log ratio probe ILMN_1862217 (no symbol): 6.82E-01
  log ratio probe ILMN_1865056 (no symbol): 5.95E-01
  log ratio probe ILMN_1880086 (no symbol): 6.47E-01
  log ratio probe ILMN_1886515 (no symbol given): -8.79E-01
[1]
  number of genes down-regulated: 563 genes
  number of genes up-regulated: 674 genes
2000-08-31 ILMN_1776157
  AveExpr.ST7612: 9.23E-01
  log ratio: 9.23E-01
ABHD8 ILMN_1712707
  AveExpr.ST7612: 9.18E-01
  log ratio: 9.18E-01
ACBD7 ILMN_1726388
  AveExpr.ST7612: 1.07E+00
  log ratio: 1.07E+00
ADRB2 ILMN_1695590
  AveExpr.ST7612: 1.02E+00
  log ratio: 1.02E+00
ANG ILMN_1760727
  AveExpr.ST7612: 1.06E+00
  log ratio: 1.06E+00
ANKRD13A ILMN_1689908
  AveExpr.ST7612: 1.03E+00
  log ratio: 1.03E+00
ATP6V0D1 ILMN_1795826
  AveExpr.ST7612: 1.00E+00
  log ratio: 1.00E+00
ATP6V1A ILMN_1711516
  AveExpr.ST7612: 9.54E-01
  log ratio: 9.54E-01
BAG3 ILMN_1659766
  AveExpr.ST7612: 1.06E+00
  log ratio: 1.06E+00
BLVRA ILMN_1691436
  AveExpr.ST7612: 1.07E+00
  log ratio: 1.07E+00
BMP6 ILMN_1747650
  AveExpr.ST7612: 1.06E+00
  log ratio: 1.06E+00
C9orf95 ILMN_1674650
  AveExpr.ST7612: 9.57E-01
  log ratio: 9.57E-01
C16orf93 ILMN_2179726
  AveExpr.ST7612: 9.06E-01
  log ratio: 9.06E-01
CA2 ILMN_1662795
  AveExpr.ST7612: 1.03E+00
  log ratio: 1.03E+00
CBLB ILMN_1685580
  AveExpr.ST7612: 9.03E-01
  log ratio: 9.03E-01
CLEC16A ILMN_1781752
  AveExpr.ST7612: 1.06E+00
  log ratio: 1.06E+00
CPNE3 ILMN_1773576
  AveExpr.ST7612: 9.17E-01
  log ratio: 9.17E-01
CRIP2 ILMN_1694432
  AveExpr.ST7612: 1.09E+00
  log ratio: 1.09E+00
DENND5A ILMN_1785356
  AveExpr.ST7612: 1.07E+00
  log ratio: 1.07E+00
DENND5A ILMN_3245413
  AveExpr.ST7612: 1.02E+00
  log ratio: 1.02E+00
DNMT3B ILMN_2328972
  AveExpr.ST7612: 1.03E+00
  log ratio: 1.03E+00
EFNA1 ILMN_2371055
  AveExpr.ST7612: 1.05E+00
  log ratio: 1.05E+00
EXTL2 ILMN_1797950
  AveExpr.ST7612: 1.08E+00
  log ratio: 1.08E+00
FAM46C ILMN_1713266
  AveExpr.ST7612: 1.07E+00
  log ratio: 1.07E+00
FAM89B ILMN_1804117
  AveExpr.ST7612: 1.06E+00
  log ratio: 1.06E+00

Reference: paper PMC4467398, “Preclinical antitumor activity of ST7612AA1: a new oral thiol-based histone deacetylase (HDAC) inhibitor” (Oncotarget, 2014)
